Residues, ends and D or L forms follow the SMILES beside them.
Tests used:
Format in all cases: in vivo
[1] = test system: mice with compressed fibular nerve; assay: Regeneration of the compressed peripheral (fibular) nerve, electrophysiological tests; details: 10 μg/kg i.p. daily for 8 days
Procedure: The study was accomplished on 22 white unbred male mice weighing 25 to 30 g (7 experimental and 15 control animals).
At the 1st stage of the study, the mice were chronically operated on to compress the fibular nerve. The fibular nerve (n. peroneus communus) in the Nembutal-narcotised mice (60 mg/kg, intraperitoneally) was compressed at a distance of 8 to 9 mm from the innervated muscle—long digital extensor (m. extensor digitorum longus—EDL). The animals were operated on the left hind leg, whilst the corresponding nerve and muscle of the right leg were intact and used further as an intact control.
Afterwards, since the 3rd day after the nerve compression, the mice were intraperitoneally injected with L-Ala-L-Glu-L-Asp-L-Pro tetrapeptide in dose 10 μg/kg, daily for 8 days. The control mice were treated with an equivalent amount of saline.
On the 11th day after the nerve compression surgery (and within 24 hours after the last tetrapeptide injection), the Nembutal-narcotised mice (60 mg/kg) were subject in vivo to electrophysiological tests for different functional parameters of the already germinated nerve and reinnervated skeletal muscular fibres (EDL).

[2] = test system: rats with severe craniocerebral compression; assay: Acute severe craniocerebral injury model (CRAA learning, rotating pivot)
Procedure: Effect of L-Ala-L-Glu-L-Asp-L-Pro tetrapeptide on repair processes in the brain was assessed on the model of acute severe craniocerebral injury. Dynamics of the CNS functional restoration was defined by the tests on the coordination of movements and muscular tonus of the animals as well as on their abilities for learning and reproduction of conditioned reflex skills.
Severe craniocerebral compression in the rats was caused by a falling lead weight. In 1, 12, 48 and 96 hours the experimental animals were intramuscularly injected with L-Ala-L-Glu-L-Asp-L-Pro tetrapeptide. Animals in the 2nd group received Cerebrolysin.
Abilities for learning and skill reproduction were estimated by the test on the conditioned reflex of active avoidance (CRAA). To estimate the muscular tonus and coordination of movements the rats were rotated on a pivot at an increasing speed. Simultaneously, the retention time was measured.

[3] = test system: intact white mice; assay: Conditioned reflex of passive avoidance (CRPA) in intact mice; details: for Trained animals (%): i.p. 60 min. before the training
Procedure: Nootropic activity of L-Ala-L-Glu-L-Asp-L-Pro tetrapeptide was studied with the application of the conditioned reflex of passive avoidance (CRPA) in the intact animals and under the conditions of amnestic impacts (electroconvulsive treatment and ethanol intoxication).
The experiments were carried out on male mice weighing 20 to 24 g. For each animal the period of stay in dark and lighted chamber departments was registered during 2 min. before the training. […] The animals were trained by means of applying an electric pain stimulus in the preferred dark department, which lasted until the animal left this department. L-Ala-L-Glu-L-Asp-L-Pro tetrapeptide was introduced intraperitoneally 60 min. before the training. Testing was performed in 2 and 24 hours after the training. The period the animal stayed in the dark and lighted chamber departments and the number of animals not entering the dark department (“educated” animals) were recorded.

[4] = test system: white unbred rats; assay: Subacute toxicity, 90 days intramuscular; details: intramuscular daily for 90 days, 1 μg/kg, 0.3 mg/kg, 3 mg/kg
Procedure: Subacute toxicity of L-Ala-L-Glu-L-Asp-L-Pro (SEQ ID NO:1) tetrapeptide was studied on 60 white unbred rats weighing 150 to 250 g. The experimental animals were administered the preparation intramuscularly once a day, daily for 90 days in doses 1 μg/kg, 0.3 mg/kg, 3 mg/kg in 0.5 ml of saline. The control animals were administered the similar amount of saline.
Within the entire period of study the animals were under daily supervision. Animals' behaviour, food and water consumption, the state of their hair integument and mucous membranes were registered. The animals were weighed once a week. Prior to and on the 30th, 60th and 90th days of the drug administration, the morphologic composition and properties of the peripheral blood in the animals were examined. Upon the study completion, biochemical and coagulologic blood indices were explored.

C[C@H](N)C(=O)N[C@@H](CCC(=O)O)C(=O)N[C@@H](CC(=O)O)C(=O)N1CCC[C@H]1C(=O)O [L-Ala-L-Glu-L-Asp-L-Pro tetrapeptide, L-Alanyl-L-Glutamyl-L-Aspartyl-L-Proline] (H-AEDP-OH)
improvement of the electric threshold of the regenerating nerve ([1]; 11th day after nerve compression): 30–50%
acetyl choline muscular contraction rate ([1]; FIG. 3): tendency to diminish
shortening of the latent M-response period ([1]; intact neuromuscular system): 89%
shortening of the latent M-response period ([1]; regenerating nerve (and the muscle)): 59%
time of retention on the rotating pivot relative to control ([2]; 48 hours after the trauma): twice exceeded that in control
number of trainable animals relative to controls (CRAA) ([2]; 96 hours after trauma, intramuscular in 1, 12, 48 and 96 hours): twice as much as that in the controls
indices of learning relative to control ([2]; in 30 days): higher than those in control
Total period of stay in the dark chamber during 2 min. ([3]; 2 hours after training): 11.4 ± 5.2 s
Trained animals (%) ([3]; 2 hours after training): 86%
Total period of stay in the dark chamber during 2 min. ([3]; 24 hours after training): 26.6 ± 5.9 s
Trained animals (%) ([3]; 24 hours after training): 68%
side effects, subacute toxicity [4]: absence of any side effects

Source: patent publication US7189701B1, “Tetrapeptide stimulating functional activity of neurons pharmacological agent based thereon and method of use thereof” (Sankt-Petersburgskaya Obschestvennaya Organizatsiya …, priority 1999, dated 2007)
